≈ marks a conversion by molar mass, not a printed value. Where “and” joins values, the source holds several entries; their conditions need not be identical. Equal entries are not always repeated.
Key:
[1] = In vitro cytotoxicity on normal cell line; format: cell-based, green monkey; details: green monkey, Vero kidney cells
[2] = test system: Vero: green monkey kidney; assay: In vitro cytotoxicity on normal cell line; format: cell-based
S. epidermidis = assay: Single-step resistance selection; format: cell-based, Staphylococcus epidermidis; details: 4 × MIC, 48 h
[3] = test system: C. albicans200 (MDR00200); assay: Agar well-diffusion antimicrobial sensitivity assay; format: cell-based, Candida albicans; details: Candida albicans, read-out: Inhibition Zone (IZ)
[4] = biological target: T1, dihydrofolate reductase (DHFR) (Homo sapiens, UniProt P00374); assay: DHFR inhibition; format: biochemical
T1 sequence (P00374 1-187): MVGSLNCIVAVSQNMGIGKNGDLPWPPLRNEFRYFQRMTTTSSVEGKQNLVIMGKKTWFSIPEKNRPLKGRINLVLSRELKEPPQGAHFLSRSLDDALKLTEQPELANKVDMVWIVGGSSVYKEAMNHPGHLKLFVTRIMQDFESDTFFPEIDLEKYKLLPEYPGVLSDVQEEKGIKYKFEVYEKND

E. coli [5] = assay: Single-step resistance selection; format: cell-based; details: 4 × MIC, 48 h
[6] = In vitro cytotoxicity on normal cell line; format: cell-based, rat; details: rat, H9C2 heart/myocardium cells
[7] = test system: H9C2: rat heart/myocardium; assay: In vitro cytotoxicity on normal cell line; format: cell-based
[8] = test system: BNL: mouse normal liver cells; assay: In vitro cytotoxicity on normal cell line; format: cell-based
[9] = In vitro cytotoxicity on normal cell line; format: cell-based, mouse; details: mouse, BNL normal liver cells
E. coli [10] = assay: Checkerboard combination assay with Ciprofloxacin; format: cell-based
A. baumannii [11] = assay: Single-step resistance selection; format: cell-based; details: 4 × MIC, 48 h
[12] = test system: C. albicans200 (MDR00200); assay: MIC and MFC by broth microdilution; format: cell-based, Candida albicans
K. pneumoniae (MDR00244) = assay: MIC and MBC by broth microdilution; format: cell-based; details: ratio in parentheses
S. epidermidis biofilm = assay: Staphylococcus biofilm mass reduction; format: cell-based; details: at their MIC
S. aureus [13] = assay: Single-step resistance selection; format: cell-based, Staphylococcus aureus; details: 4 × MIC, 48 h
A. baumannii (MDR00521) = assay: MIC and MBC by broth microdilution; format: cell-based; details: ratio in parentheses
C. albicans200 [14] = assay: Single-step resistance selection; format: cell-based, Candida albicans; details: 4 × MIC, 48 h
[15] = test system: clinical pathogenic isolates; assay: Single-step resistance selection, whole panel; format: cell-based; details: 4 × MIC
C. albicans100 = assay: Single-step resistance selection; format: cell-based, Candida albicans; details: 4 × MIC, 48 h
K. pneumoniae = assay: Single-step resistance selection; format: cell-based; details: 4 × MIC, 48 h
E. coli DNA gyrase = E. coli DNA gyrase (Escherichia coli, UniProt P0AES4+P0AES6); assay: DNA gyrase inhibition; format: biochemical
Sequence of E. coli DNA gyrase (P0AES4 whole entry, one chain of several): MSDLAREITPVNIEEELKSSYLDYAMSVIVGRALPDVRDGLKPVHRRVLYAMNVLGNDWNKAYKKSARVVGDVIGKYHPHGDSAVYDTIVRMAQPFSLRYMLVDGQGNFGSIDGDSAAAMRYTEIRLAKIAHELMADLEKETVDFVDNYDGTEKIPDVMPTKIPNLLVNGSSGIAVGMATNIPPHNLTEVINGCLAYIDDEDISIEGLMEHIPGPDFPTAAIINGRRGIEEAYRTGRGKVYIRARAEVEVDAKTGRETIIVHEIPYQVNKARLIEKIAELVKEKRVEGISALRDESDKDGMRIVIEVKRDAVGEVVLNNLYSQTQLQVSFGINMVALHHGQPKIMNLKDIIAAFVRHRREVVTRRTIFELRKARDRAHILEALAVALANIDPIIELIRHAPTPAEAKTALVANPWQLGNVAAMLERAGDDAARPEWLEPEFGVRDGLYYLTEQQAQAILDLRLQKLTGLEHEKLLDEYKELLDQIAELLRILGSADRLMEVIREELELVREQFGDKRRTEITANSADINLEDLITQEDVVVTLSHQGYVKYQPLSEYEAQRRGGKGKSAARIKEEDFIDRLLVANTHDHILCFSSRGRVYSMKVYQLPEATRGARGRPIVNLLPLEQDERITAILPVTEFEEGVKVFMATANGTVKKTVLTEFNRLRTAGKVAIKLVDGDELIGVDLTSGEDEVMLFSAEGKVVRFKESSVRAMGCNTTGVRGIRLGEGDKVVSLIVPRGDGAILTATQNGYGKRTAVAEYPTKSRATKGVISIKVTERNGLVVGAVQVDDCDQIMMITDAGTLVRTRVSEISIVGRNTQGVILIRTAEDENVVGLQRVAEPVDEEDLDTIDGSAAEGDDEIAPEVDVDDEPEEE

B. subtilis (MDR00423) = assay: MIC and MBC by broth microdilution; format: cell-based
E. coli (MDR00501) [16] = assay: Agar well-diffusion antimicrobial sensitivity assay; format: cell-based; details: Escherichia coli, read-out: Inhibition Zone (IZ)
S. aureus biofilm = assay: Staphylococcus biofilm mass reduction; format: cell-based; details: at their MIC
[17] = test system: S. epidermidis (MDR00223); assay: Agar well-diffusion antimicrobial sensitivity assay; format: cell-based, Staphylococcus epidermidis; details: Staphylococcus epidermidis, read-out: Inhibition Zone (IZ)
[18] = test system: C. albicans100 (MDR00100); assay: as above; format: cell-based, Candida albicans; details: Candida albicans, read-out: Inhibition Zone (IZ)
[19] = test system: C. albicans100 (MDR00100); assay: MIC and MFC by broth microdilution; format: cell-based, Candida albicans
A. baumannii [20] = assay: Checkerboard combination assay with Ciprofloxacin; format: cell-based
RBCs = assay: Hemolytic assay; format: cell-based; details: human RBCs; compounds 1.0 mg/mL; Triton X-100 0.1% v/v; 37 °C, 35 min
S. aureus (MDR00231) [21] = assay: MIC and MBC by broth microdilution; format: cell-based, Staphylococcus aureus
S. aureus (MDR00231) [22] = assay: Agar well-diffusion antimicrobial sensitivity assay; format: cell-based, Staphylococcus aureus; details: Staphylococcus aureus, read-out: Inhibition Zone (IZ)
Gram-negative bacteria = assay: MIC broth microdilution, Gram-negative panel; format: cell-based; details: Gram-negative bacteria used in this study
E. coli (MDR00501) [23] = assay: MIC and MBC by broth microdilution; format: cell-based
S. aureus [24] = assay: Checkerboard combination assay with Ciprofloxacin; format: cell-based, Staphylococcus aureus
C. albicans200 [25] = assay: Checkerboard combination assay with Ketoconazole; format: cell-based, Candida albicans
B. subtilis = assay: Single-step resistance selection; format: cell-based; details: 4 × MIC, 48 h
[26] = test system: S. epidermidis (MDR00223); assay: MIC and MBC by broth microdilution; format: cell-based, Staphylococcus epidermidis

For Cc1c(NC(=O)CC2=NC(=O)CS2)c(=O)n(-c2ccccc2)n1C [Compound 10, N-(1,5-Dimethyl-3-oxo-2-phenyl-2,3-dihydro-1H-pyrazol-4-yl)-2-(4-oxo-4,5-dihydrothiazol-2-yl)acetamide], the IC50 at 72 h [1] was 70.06 ± 0.34 µM, the “Selectivity index against DHFR” value ([2]; IC50 of Vero / IC50 of DHFR) was 49.33 and the “Selectivity index against DNA gyrase” value ([2]; IC50 of Vero / IC50 of DNA gyrase) was 2.42. For the same molecule, the “Single-step resistance frequency (mutation frequency)” value (“Single-step resistance frequency” for short) (S. epidermidis) was 3.00 × 10^–8, the zone of inhibition at 100000 µg/mL [3] was 30 ± 0.55 mm and the IC50 [4] was 1.42 ± 0.23 µM. The “Single-step resistance frequency” value (E. coli [5]) was 2.60 × 10^–8, the IC50 at 72 h [6] was 99.8 ± 1.84 µM and the “Selectivity index against DHFR” value ([7]; IC50 of H9C2 / IC50 of DHFR) was 70.26. For the same molecule, the “Selectivity index against DNA gyrase” value ([7]; IC50 of H9C2 / IC50 of DNA gyrase) was 3.45, the “Selectivity index against DHFR” value ([8]; IC50 of BNL / IC50 of DHFR) was 69.64 and the “Selectivity index against DNA gyrase” value ([8]; IC50 of BNL / IC50 of DNA gyrase) was 3.42. The IC50 at 72 h [9] was 98.9 ± 1.54 µM, the combination effect (E. coli [10]) was “S (S: synergism)” and the “fractional inhibitory concentration index (FICI)” value (E. coli [10]) was 0.5. For the same molecule, the “Single-step resistance frequency” value (A. baumannii [11]) was 2.53 × 10^–8, the MFC/MIC ([12]; C. albicans200, ratio in parentheses) was 1 and the MIC ([12]; Candida albicans, read-out: MIC (mean ± SEM), C. albicans200, broth microdilution) was 0.47 ± 0.1 µg/mL (≈ 1.36 µM). The MBC/MIC (K. pneumoniae (MDR00244)) was 1, the “reduction of biofilm formation” value (S. epidermidis biofilm) was 53.3% and the “Single-step resistance frequency” value (S. aureus [13]) was 2.41 × 10^–8. For the same molecule, the MBC/MIC (A. baumannii (MDR00521)) was 0.5, the “Single-step resistance frequency” value (C. albicans200 [14]) was 3.50 × 10^–8 and the “mutation frequency, range over panel” value [15] was 2.41 × 10^–8 to 3.50 × 10^–8. The “Single-step resistance frequency” value (C. albicans100) was 3.33 × 10^–8, the “Single-step resistance frequency” value (K. pneumoniae) was 2.61 × 10^–8 and the IC50 (E. coli DNA gyrase) was 28.88 ± 0.12 µM. It also gave an MBC/MIC (B. subtilis (MDR00423); B. subtilis, ratio in parentheses) of 2, an MIC (B. subtilis (MDR00423); Bacillus subtilis, read-out: MIC (mean ± SEM), B. subtilis, broth microdilution) of 0.98 ± 0.1 µg/mL (≈ 2.85 µM) and a zone of inhibition at 100000 µg/mL (E. coli (MDR00501) [16]) of 25 ± 0.22 mm. For the same molecule, the “reduction of biofilm formation” value (S. aureus biofilm) was 55.6%, the zone of inhibition at 100000 µg/mL [17] was 26 ± 0.4 mm and the zone of inhibition at 100000 µg/mL [18] was 28 ± 0.88 mm. For the same molecule, the MFC/MIC ([19]; C. albicans100, ratio in parentheses) was 2, the MIC ([19]; Candida albicans, read-out: MIC (mean ± SEM), C. albicans100, broth microdilution) was 0.95 ± 0.3 µg/mL (≈ 2.76 µM) and the combination effect (A. baumannii [20]) was “S (S: synergism)”. For the same molecule, the “fractional inhibitory concentration index (FICI)” value (A. baumannii [20]) was 0.5, the “%lysis of RBCs” value (RBCs) was 11.66% and 11.66 ± 0.231% and the MBC/MIC (S. aureus (MDR00231) [21]; S. aureus, ratio in parentheses) was 1. For the same molecule, the MIC (S. aureus (MDR00231) [21]; Staphylococcus aureus, read-out: MIC (mean ± SEM), S. aureus, broth microdilution) was 0.95 ± 0.2 µg/mL (≈ 2.76 µM), the zone of inhibition at 100000 µg/mL (S. aureus (MDR00231) [22]) was 27 ± 0.21 mm and the “MIC, range over panel” value (Gram-negative bacteria) was 0.43 to 0.98 µg/mL. The MBC/MIC (E. coli (MDR00501) [23]; E. coli, ratio in parentheses) was 1, the MIC (E. coli (MDR00501) [23]; Escherichia coli, read-out: MIC (mean ± SEM), E. coli, broth microdilution) was 0.46 ± 0.4 µg/mL (≈ 1.34 µM) and the combination effect (S. aureus [24]) was “S (S: synergism)”. For the same molecule, the “fractional inhibitory concentration index (FICI)” value (S. aureus [24]) was 0.5, the combination effect (C. albicans200 [25]) was “S (S: synergism)” and the “fractional inhibitory concentration index (FICI)” value (C. albicans200 [25]) was 0.5. The “Single-step resistance frequency” value (B. subtilis) was 3.50 × 10^–8, the MBC/MIC ([26]; S. epidermidis, ratio in parentheses) was 1 and the MIC ([26]; Staphylococcus epidermidis, read-out: MIC (mean ± SEM), S. epidermidis, broth microdilution) was 0.97 ± 0.4 µg/mL (≈ 2.82 µM).

Reference: PMC8851638 (ACS Omega, 2022)
